According to US9066947B2, “Indolyl-substituted pyrazino[1,2-b]isoquinolines for cancer treatment” (Everest Biosciences, Inc., priority 2009, dated 2015):

How the values were obtained:
[1] = test system: PC-3 prostate cancer cells; test: Cell proliferation assay (trypan blue viable cell count) and IC50 determination; assay type: cell-based, human; conditions: PC-3 cells; for IC50: Homo sapiens, viable cells after 48 hours, read-out: IC50 for cell growth inhibition; for concentration from which statistically significant cell growth inhibition started: 48 hours
Protocol: All new synthesized compounds and Etoposide were first dissolved in 100% DMSO at initial concentration of 100 mM, and then diluted at final concentration of 200 uM in culture medium. Commercial form of Avastin (25 mg/ml) was diluted to appropriate concentrations in culture medium.
(§1) Hormone-independent and metastatic PC-3 prostate cancer cells were purchased from the American Type Culture Collection (Manassas, Va., USA) and cultured in RPMI-1640 supplemented with 10% fetal bovine serum. Etoposide was purchased from Sigma, Avastin from Roche.
For cell counting a total of 6×10^4 cells at a density of 0.3×10^6/ml were seeded in 96-well plate. The cells were treated with compounds, Etoposide or Avastin as positive controls at 1 uM, 5 uM, 10 uM, 20 uM, 50 uM, 100 uM for 48 hours. For Avastin 5 uM, 20 uM and 50 uM concentrations were used. The cells were labeled with trypan blue and the viable cells were quantified.

[2] = test system: PC-3 prostate cancer cells; test: Annexin V-apoptosis assay; assay type: cell-based, human; conditions: 48 hours; for apoptotic cell number versus control and Etoposide: 50 uM and 100 uM
Protocol: as §1
Cells were treated with 50 uM and 100 uM compounds and Etoposide for 48 hours, harvested, washed with PBS and resuspended in binding buffer (0.01 M HEPES pH 7.4, 0.14 M NaCl, […] CaCl2) (BD Bioscience, san Jose, Calif., USA), stained with […] annexin V and 7-AAD (BD Bioscience). The cells were incubated for 15 min at room temperature in the dark, and the rate of apoptosis was measured by flow cytometry (Calibur, BD) and analyzed using FCS Express Professional software (De NoVo software, CA, USA).

[3] = test system: PC-3 prostate cancer cells; test: Cell cycle analysis; assay type: cell-based, human; conditions: for G2/M phase blockage: 50 uM and 100 uM, analogue 3 statement at 100 uM
Protocol: as §1
Cells were harvested after the treatment, then fixed in ice-cold 70% EtOH. Cells then were washed with PBS and incubated in DNA staining buffer, containing 1 mg/ml sodium citrate (Sigma), 0.1 mg/ml propidium iodide (Sigma), 3 ul/ml TritonX-100, 0.02 mg/ml RNaseA (Sigma) for 30 min at 4° C. The cell cycle profiles were measured in a FACS Calibur cytofluorometer (BD) and analyzed using FCS Express Professional (De NoVo software, CA, USA) and Multicycle (Phoenix Flow Systems, Inc., CA, USA) softwares.

[4] = test system: PC-3 tumors; test: PC-3 prostate cancer xenograft mouse model of tumor growth and metastasis; assay type: in vivo, athymic NMRI nude mice; conditions: tumors about 250 mm3, IV once every other day for 14 days; Etoposide 20 mg/kg, Substance X 40 mg/kg (FIG. 4)
Description: Athymic NMRI nude mice between 6-8 weeks old (Taconic; Bomholt, Denmark) were used. Prostate cancer xenograft mouse model was created by implanting hormone-independent PC3 tumor cells subcutaneously into athymic nude mice as previously described (Wegiel B, Bjartell A, Tuomela J, et al.: Multiple cellular mechanisms related to cyclin Al in prostate cancer invasion and metastasis. Journal of the National Cancer Institute 100: 10221036, 2008).
PC-3 cells were purchased from American Type Culture Collection (Manassas, V A) and cultured in RPMI-1640 supplemented with 10% Fetal Bovine Serum. PC-3 cells at 1×10^6/per mouse were used. The mice were divided into three groups (6 mice per group). The first group allowed tumors to grow between 170-400 mm^3 in size before starting the treatment. The second group allowed tumors to grow between 550-650 mm^3 in size before starting the treatment. The third group allowed tumors to grow between 700-800 mm^3 in size before starting the treatment. The tumor diameters were measured twice weekly using calipers. The tumor volumes were calculated using an equation of a*(b2/2) where a and b represent the length and width of the tumor, respectively.
The treatment of the compound of Example 1 (also referred to herein as “Substance X”) or PBS containing 5% DMSO (vehicle) as Control was started when tumors reached the desired size as described above. In the first experimental setting, Substance X was administered intravenously once every other day. In the second experimental setting, Substance X was administrated orally once every other day. Tumor growth was assessed periodically as described in Results. The mice were sacrificed after treatment by euthanization via isofluorene inhalation. Lymph node, liver, lung, spleen and femurs were removed from each mouse. Half of the tumor tissues were used for histology and immunohistochemical analysis. For histology analysis, tissues were fixed in 4% paraformaldehyde and embedded in paraffin. The sections were stained with hematoxylineosin (H&E) or imunohistochemical stained with antibodies and analyzed under an optical microscope. The other half of the tissues were used for protein analysis and thus were snapfrozen in liquid nitrogen. The body weights of the mice on the first and last day of the treatment were collected and compared. Tumor invasion and metastasis were examined in various tissues from the sacrificed mice.
For a comparison study, mice with tumors at 190-250 mm^3 in size were treated with the cytotoxic drug Etoposide (Sigma) at a dose of 20 mg/kg via IV injection once every other day. The tumor size was measured as described in the Results. Three mice were treated with Etoposide or the vehicle as Control. The mice were sacrificed and the tissues were collected as described above.

| Structure (SMILES) | IC50 [1] [µM] | apoptotic cell number versus control and Etoposide [2] | Early apoptosis, % ([2]; 50 uM) [%] | Late apoptosis/necrosis, % ([2]; 50 uM) [%] | Total, % (apoptosis) ([2]; 50 uM) [%] | Early apoptosis, % ([2]; 100 uM) [%] | Late apoptosis/necrosis, % ([2]; 100 uM) [%] | Total, % (apoptosis) ([2]; 100 uM) [%] | G0/G1, % ([3]; 50 uM) [%] | S + G2 + M, % ([3]; 50 uM) [%] | G2/M phase blockage [3] | G0/G1, % ([3]; 100 uM) [%] | S + G2 + M, % ([3]; 100 uM) [%] | concentration from which statistically significant cell growth inhibition started [1] [µM] | effect on PC-3 cell number ([1]; 48 hours (FIG. 12)) | tumor growth, comparison of Etoposide and Substance X [4] |
| --- | --- | --- | --- | --- | --- | --- | --- | --- | --- | --- | --- | --- | --- | --- | --- | --- |
| CN1CC(=O)N2[C@H](c3c[nH]c4ccc(Cl)cc34)c3cc4c(cc3C[C@H]2C1=O)OCO4 [Analogue 1, (2S,8S)-2-(5-chloro-1H-indol-3-yl)-6-methyl-13,15-dioxa-3,6-diazatetracyclo-[8.7.0.0^3,8.0^12,16]heptadeca-1(10),11,16-triene-4,7-dione] | 36 | increasing in both early and late apoptotic cell number | 10.98 | 4.23 | 15.21 | 16.83 | 8.29 | 25.12 | 63.26 | 36.74 | not | 60.44 | 39.56 | – | – | – |
| COc1ccc2[nH]cc([C@@H]3c4cc5c(cc4C[C@H]4C(=O)N(C)CC(=O)N34)OCO5)c2c1 [Analogue 2, (2S,8S)-2-(5-methoxy-1H-indol-3-yl)-6-methyl-13,15-dioxa-3,6-diazatetracyclo[8.7.0.0^3,8.0^12,16]heptadeca-1(10),11,16-triene-4,7-dione] | 60 | – | – | – | – | – | – | – | – | – | – | – | – | 5 | – | – |
| CN1CC(=O)N2[C@H](c3c[nH]c4c3ccc3ccccc34)c3cc4c(cc3C[C@H]2C1=O)OCO4 [Analogue 3, (2S,8S)-6-methyl-2-{1H-naphtho[1,2-b]pyrrol-3-yl}-13,15-dioxa-3,6-diazatetracyclo[8.7.0.0^3,8.0^12,16]heptadeca-1(10),11,16-triene-4,7-dione] | 32 | increasing in both early and late apoptotic cell number | 15.21 | 6.55 | 21.76 | 17.51 | 5.52 | 23.03 | 67.52 | 32.48 | – | 51.77 | 48.23 | 5 | – | – |
| CN1CC(=O)N2[C@H](c3cn(C)c4ccccc34)c3cc4c(cc3C[C@H]2C1=O)OCO4 [Analogue 4, (2S,8S)-6-methyl-2-(1-methyl-1H-indol-3-yl)-13,15-dioxa-3,6-diazatetracyclo-[8.7.0.0^3,8.0^12,16]heptadeca-1(10),11,16-triene-4,7-dione] | 30 | – | – | – | – | – | – | – | – | – | – | – | – | 10 | – | – |
| CN1CC(=O)N2[C@H](c3cn(Cc4ccccc4)c4ccccc34)c3cc4c(cc3C[C@H]2C1=O)OCO4 [Analogue 5, (2S,8S)-2-(1-benzyl-1H-indol-3-yl)-6-methyl-13,15-dioxa-3,6-diazatetracyclo-[8.7.0.0^3,8.0^12,16]heptadeca-1(10),11,16-triene-4,7-dione] | – | – | – | – | – | – | – | – | – | – | – | – | – | – | resulted in cell reduction | – |
| COc1cc([C@@H]2c3cc4c(cc3[C@@H](O[C@@H]3O[C@@H]5CO[C@@H](C)O[C@H]5[C@H](O)[C@H]3O)[C@H]3COC(=O)[C@H]23)OCO4)cc(OC)c1O [Etoposide, reference compound] | – | – | 9.22 | 6.73 | 15.95 | 9.35 | 4.98 | 14.33 | 15.91 | 84.09 | G2/M phase blockage | 21.39 | 78.61 | – | – | grew slowly |
